Laboratory results published in the NIST ThermoML archive (doi:10.1021/je100556t).
± gives the expanded uncertainty stated by the source.

Details: 298.15 K; 101.33 kPa; Liquid

For `CCO` [ethanol], which molar volume is on record?
The molar volume was 5.866e-05 ± 5e-08 m3/mol.

Which molar volume does the source give for `COCCO` [2-methoxyethan-1-ol] here?
Its molar volume is 7.926e-05 ± 3e-08 m3/mol.

With `C1CCCCC1` [cyclohexane] as the compound, how does the molar volume read?
Its molar volume is 0.0001088 ± 9e-08 m3/mol.

Which molar volume does the source give for `CCOCCO` [2-ethoxyethan-1-ol] here?
The molar volume was 9.742e-05 ± 4e-08 m3/mol.

With `C1CCOC1` [tetrahydrofuran] as the compound, how does the molar volume read?
Its molar volume is 8.174e-05 ± 4e-08 m3/mol.
